Test results from US20070129344A1, “Bicyclic 6-alkylidene-penem beta-lactamase inhibitors and beta-lactam antibiotic combination: a broad spectrum antibiotic” (priority 2005, published 2007).
Structures can show the parent of a compound that is named as a salt.

Assays:
[1] = system: E. cloacae GC 6991 (AmpC); assay: MIC microbroth dilution; β-lactamase class C; type: cell-based; conditions: Enterobacter cloacae, Cefepime + 4 ug/ml Compound 2, read-out: MIC
Method: (§1) The in vitro activities of the antibiotics were determined by the microbroth dilution method as recommended by the National Committee for Clinical Laboratory Standards (NCCLS). (NCCLS. 2000. Methods for Dilution Antimicrobial Susceptibility Tests for Bacteria That Grow Aerobically; Approved Standards: M7-A5, vol. 19. National Committee for Clinical Laboratory Standards, Villanova, Pa.). Mueller-Hinton II broth (MHBII)(BBL Cockeysville, Md.), was used for the testing procedure. […]. The plates were incubated for 18-22 hours at 35° C. in ambient air.

[2] = system: S. marcescens GC 4145 Inducible AmpC; assay: MIC microbroth dilution; β-lactamase class C; type: cell-based; conditions: Serratia marcescens, Cefepime + 4 ug/ml Compound 2, read-out: MIC
Method: as §1

[3] = system: K. pneumoniae GC 7822 Act 1; assay: MIC microbroth dilution; β-lactamase class C; type: cell-based; conditions: Klebsiella pneumoniae, GC7822ACT1, Cefepime + 4 ug/ml Compound 2, read-out: MIC
Method: as §1

[4] = system: K. pneumoniae GC 7824 Fox 5; assay: MIC microbroth dilution; β-lactamase class C; type: cell-based; conditions: Klebsiella pneumoniae, GC7824FOX5, Cefepime + 4 ug/ml Compound 2, read-out: MIC
Method: as §1

[5] = system: P. aeruginosa ATCC 27853 AmpC-inducable; assay: MIC microbroth dilution; β-lactamase class C; type: cell-based; conditions: Pseudomonas aeruginosa, ATCC27853, Cefepime + 4 ug/ml Compound 2, read-out: MIC
Method: as §1

[6] = system: S. marcescens GC 4132 (AmpC); assay: MIC microbroth dilution; β-lactamase class C; type: cell-based; conditions: Serratia marcescens, Cefepime + 4 ug/ml Compound 2, read-out: MIC
Method: as §1

[7] = system: P. aeruginosa GC 1763 AmpC-inducible; assay: MIC microbroth dilution; β-lactamase class C; type: cell-based; conditions: Pseudomonas aeruginosa, Cefepime + 4 ug/ml Compound 2, read-out: MIC
Method: as §1

[8] = system: E. aerogenes GC 7036 TEM-24, Amp C inducable; assay: MIC microbroth dilution; β-lactamase class A (ESBL), C; type: cell-based; conditions: Klebsiella aerogenes, Cefepime + 4 ug/ml Compound 2, read-out: MIC
Method: as §1

[9] = system: M. morganii GC 1617 TEM-10 + inducible AmpC; assay: as above; type: cell-based; conditions: Morganella morganii, Cefepime + 4 ug/ml Compound 2, read-out: MIC
Method: as §1

[10] = system: E. cloacae GC 7065 TEM-26, SHV-12 Amp C inducable; assay: as above; type: cell-based; conditions: Enterobacter cloacae, Cefepime + 4 ug/ml Compound 2, read-out: MIC
Method: as §1

[11] = system: E. aerogenes GC 7039 TEM-4, Amp C inducable; assay: as above; type: cell-based; conditions: Klebsiella aerogenes, Cefepime + 4 ug/ml Compound 2, read-out: MIC
Method: as §1

[12] = system: E. cloacae GC 7052 SHV-5, Amp C inducable; assay: as above; type: cell-based; conditions: Enterobacter cloacae, Cefepime + 4 ug/ml Compound 2, read-out: MIC
Method: as §1

[13] = system: E. coli GAR 5929 TEM, OXA, Act-1, CTX (By PCR only); assay: MIC microbroth dilution; β-lactamase class A, C, D; type: cell-based; conditions: Escherichia coli, Cefepime + 4 ug/ml Compound 2, read-out: MIC
Method: as §1

E. coli GC 2920 (IRT-2) = assay: MIC microbroth dilution; β-lactamase class A (IRT); type: cell-based; conditions: Escherichia coli, Cefepime + 4 ug/ml Compound 2, read-out: MIC
Method: as §1

[14] = system: K. pn GC 2391 (pl 5.4; 5.6; 7.6; 8.7 B-lactamases); assay: MIC microbroth dilution; β-lactamase class A, A (ESBL), C; type: cell-based, K. pneumoniae; conditions: Klebsiella pneumoniae, Cefepime + 4 ug/ml Compound 2, read-out: MIC
Method: as §1

E. coli GC 1807 OXA-7 = assay: MIC microbroth dilution; β-lactamase class D; type: cell-based; conditions: Escherichia coli, GC1807OXA7, E. coli GC 1807; Cefepime + 4 ug/ml Compound 2; read-out: MIC
Method: as §1

E. coli GC 1480 OXA-1 = assay: MIC microbroth dilution; β-lactamase class D; type: cell-based; conditions: Escherichia coli, GC1480OXA1, E. coli GC 1480; Cefepime + 4 ug/ml Compound 2; read-out: MIC
Method: as §1

[15] = system: E. coli GC 4971 OXA-1, TEM-1; assay: MIC microbroth dilution; β-lactamase class A, D; type: cell-based; conditions: Escherichia coli, Cefepime + 4 ug/ml Compound 2, read-out: MIC
Method: as §1

[16] = system: C. freundii GC 4171 TEM-1 + InducibleAmpC; assay: MIC microbroth dilution; β-lactamase class A, C; type: cell-based; conditions: Citrobacter freundii
Method: as §1

E. coli GC 2844 (none) = assay: MIC microbroth dilution; β-lactamase class none; type: cell-based; conditions: Escherichia coli, Cefepime + 4 ug/ml Compound 2, read-out: MIC
Method: as §1

E. coli GC 2804 (imp) = assay: MIC microbroth dilution; β-lactamase class none; type: cell-based; conditions: Escherichia coli, Cefepime + 4 ug/ml Compound 2
Method: as §1

[17] = system: E. coli ATCC 25922 (none); assay: MIC microbroth dilution; β-lactamase class none; type: cell-based; conditions: Escherichia coli, ATCC25922, E. coli ATCC 25922; Cefepime + 4 ug/ml Compound 2; read-out: MIC
Method: as §1

[18] = system: E. coli GAR 6649 TEM, OXA, CTX (By PCR only); assay: MIC microbroth dilution; β-lactamase class A, A (ESBL), D; type: cell-based; conditions: Escherichia coli, Cefepime + 4 ug/ml Compound 2, read-out: MIC
Method: as §1

[19] = system: S. marcescens GC 1781 (Sme-1 + AmpC); assay: MIC microbroth dilution; β-lactamase class A (Cb'ase), C; type: cell-based; conditions: Serratia marcescens, Cefepime + 4 ug/ml Compound 2, read-out: MIC
Method: as §1

[20] = system: K. pn GC 6494 (TEM-1 + SHV-5); assay: MIC microbroth dilution; β-lactamase class A, A (ESBL); type: cell-based, K. pneumoniae; conditions: Klebsiella pneumoniae, Cefepime + 4 ug/ml Compound 2, read-out: MIC
Method: as §1

[21] = system: K. pn GC 1554 (TEM-1 + TEM-26 + SHV-1); assay: as above; type: cell-based, K. pneumoniae; conditions: Klebsiella pneumoniae, Cefepime + 4 ug/ml Compound 2, read-out: MIC
Method: as §1

[22] = system: K. pn GC 1507 (TEM-9 + SHV-1); assay: as above; type: cell-based, K. pneumoniae; conditions: Klebsiella pneumoniae, Cefepime + 4 ug/ml Compound 2, read-out: MIC
Method: as §1

[23] = system: K. pn GC 6657 (TEM-1 + SHV-27); assay: as above; type: cell-based, K. pneumoniae; conditions: Klebsiella pneumoniae, Cefepime + 4 ug/ml Compound 2, read-out: MIC
Method: as §1

[24] = system: K. pn GC 6488 (TEM-1 + SHV-5 + SHV-7); assay: as above; type: cell-based, K. pneumoniae; conditions: Klebsiella pneumoniae, Cefepime + 4 ug/ml Compound 2, read-out: MIC
Method: as §1

[25] = system: K. pn GC 1963 (TEM-10 + SHV-1 + SHV-ESBL); assay: as above; type: cell-based, K. pneumoniae; conditions: Klebsiella pneumoniae, Cefepime + 4 ug/ml Compound 2, read-out: MIC
Method: as §1

[26] = system: K. pn GC 2006 (TEM-10 + SHV-1); assay: as above; type: cell-based, K. pneumoniae; conditions: Klebsiella pneumoniae, Cefepime + 4 ug/ml Compound 2, read-out: MIC
Method: as §1

[27] = system: K. pn GC 6651 (TEM-1 + SHV-1 + SHV-5); assay: as above; type: cell-based, K. pneumoniae; conditions: Klebsiella pneumoniae, Cefepime + 4 ug/ml Compound 2, read-out: MIC
Method: as §1

[28] = system: K. pn GC 3057 (CAZ-R; P/T-R); assay: as above; type: cell-based, K. pneumoniae; conditions: Klebsiella pneumoniae, Cefepime + 4 ug/ml Compound 2, read-out: MIC
Method: as §1

Compound: O=C(O)C1=CS[C@@H]2/C(=C\c3cn4c(n3)COCC4)C(=O)N12 [Compound 2, (5R), (6Z)-6-(5,6-Dihydro-8H-imidazo[2.1-c][1,4]oxazin-2-ylmethylene)-7-oxo-4-thia-1-azabicyclo[3.2.0]hept-2-ene-2-carboxylic Acid, Sodium Salt]
- MIC [1]: 0.5 µg/mL
- MIC [2]: 0.25 µg/mL
- MIC [3]: 0.5 µg/mL
- MIC [4]: 0.25 µg/mL
- MIC [5]: 2 µg/mL
- MIC [6]: 0.12 µg/mL
- MIC [7]: 2 µg/mL
- MIC [8]: 0.06 µg/mL
- MIC [9]: 0.12 µg/mL
- MIC [10]: 0.06 µg/mL
- MIC [11]: 0.06 µg/mL
- MIC [12]: 1 µg/mL
- MIC [13]: 0.12 µg/mL
- MIC (E. coli GC 2920 (IRT-2)): 0.06 µg/mL
- MIC [14]: 0.5 µg/mL
- MIC (E. coli GC 1807 OXA-7): 0.03 µg/mL
- MIC (E. coli GC 1480 OXA-1): 0.06 µg/mL
- MIC [15]: 0.12 µg/mL
- MIC [16]: 0.06 µg/mL
- MIC (E. coli GC 2844 (none)): 0.06 µg/mL
- MIC (E. coli GC 2804 (imp)): < 0.015 µg/mL
- MIC [17]: 0.06 µg/mL
- MIC [18]: 1 µg/mL
- MIC [19]: 0.06 µg/mL
- MIC [20]: 0.12 µg/mL
- MIC [21]: 0.12 µg/mL
- MIC [22]: 0.06 µg/mL
- MIC [23]: 0.06 µg/mL
- MIC [24]: 0.5 µg/mL
- MIC [25]: 0.25 µg/mL
- MIC [26]: 0.25 µg/mL
- MIC [27]: 0.12 µg/mL
- MIC [28]: 0.12 µg/mL
